We go through 22 molecules from patent US20140322278A1, “Modulation of Tissue Transglutaminase Activation in Disease” (The Board of Trustees of the Leland Stanford Junior …, priority 2011, published 2014).

For assay [1], the target named is T1, human TG2 (Homo sapiens, UniProt P21980).
T1 sequence (P21980 1-687): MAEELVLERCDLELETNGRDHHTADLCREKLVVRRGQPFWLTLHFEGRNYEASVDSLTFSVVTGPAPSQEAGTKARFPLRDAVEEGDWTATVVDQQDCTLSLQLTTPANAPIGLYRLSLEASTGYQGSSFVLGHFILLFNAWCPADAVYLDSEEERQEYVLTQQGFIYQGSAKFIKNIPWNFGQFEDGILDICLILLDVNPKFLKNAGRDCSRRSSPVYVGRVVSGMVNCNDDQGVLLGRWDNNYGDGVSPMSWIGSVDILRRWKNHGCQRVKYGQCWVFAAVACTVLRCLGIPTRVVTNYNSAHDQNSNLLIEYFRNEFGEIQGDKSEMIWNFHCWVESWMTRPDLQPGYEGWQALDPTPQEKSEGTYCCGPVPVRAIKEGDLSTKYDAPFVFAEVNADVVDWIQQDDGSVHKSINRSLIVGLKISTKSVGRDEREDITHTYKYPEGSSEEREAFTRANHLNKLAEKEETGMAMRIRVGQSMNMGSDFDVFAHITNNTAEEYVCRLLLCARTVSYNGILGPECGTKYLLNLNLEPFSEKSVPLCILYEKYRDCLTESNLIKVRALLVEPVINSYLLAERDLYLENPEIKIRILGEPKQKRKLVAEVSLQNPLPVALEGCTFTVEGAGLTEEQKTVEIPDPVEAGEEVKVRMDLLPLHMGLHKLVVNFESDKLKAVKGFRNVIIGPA
As to the kind of experiment: TG2 inhibition kinetics (kinh/Ki). The class given is biochemical.

Assay [2] in a line: Reactivity of disulfide inhibitors towards dithiothreitol.
In assay [3] the target is T2, human thioredoxin (Homo sapiens, UniProt P10599).
T2 construct: made in house; host or cells: E. coli
T2 sequence (P10599 1-105): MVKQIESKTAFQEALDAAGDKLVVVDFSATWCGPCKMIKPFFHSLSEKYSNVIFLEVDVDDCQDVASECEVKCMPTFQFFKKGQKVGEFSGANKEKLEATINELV
In words: Inhibition of human thioredoxin by disulfide analogs of PX-12 (kinh/Ki). The format is biochemical. The conditions noted are these: for Trx kinh/Ki: human thioredoxin, bimolecular parameter estimating potency; for Trx/DTT: ratio of reactivity towards Trx relative to DTT (selectivity).

In assay [4] the target is T3, human transglutaminase 1 (TG1) (Homo sapiens, UniProt P22735).
T3 sequence (P22735 1-817): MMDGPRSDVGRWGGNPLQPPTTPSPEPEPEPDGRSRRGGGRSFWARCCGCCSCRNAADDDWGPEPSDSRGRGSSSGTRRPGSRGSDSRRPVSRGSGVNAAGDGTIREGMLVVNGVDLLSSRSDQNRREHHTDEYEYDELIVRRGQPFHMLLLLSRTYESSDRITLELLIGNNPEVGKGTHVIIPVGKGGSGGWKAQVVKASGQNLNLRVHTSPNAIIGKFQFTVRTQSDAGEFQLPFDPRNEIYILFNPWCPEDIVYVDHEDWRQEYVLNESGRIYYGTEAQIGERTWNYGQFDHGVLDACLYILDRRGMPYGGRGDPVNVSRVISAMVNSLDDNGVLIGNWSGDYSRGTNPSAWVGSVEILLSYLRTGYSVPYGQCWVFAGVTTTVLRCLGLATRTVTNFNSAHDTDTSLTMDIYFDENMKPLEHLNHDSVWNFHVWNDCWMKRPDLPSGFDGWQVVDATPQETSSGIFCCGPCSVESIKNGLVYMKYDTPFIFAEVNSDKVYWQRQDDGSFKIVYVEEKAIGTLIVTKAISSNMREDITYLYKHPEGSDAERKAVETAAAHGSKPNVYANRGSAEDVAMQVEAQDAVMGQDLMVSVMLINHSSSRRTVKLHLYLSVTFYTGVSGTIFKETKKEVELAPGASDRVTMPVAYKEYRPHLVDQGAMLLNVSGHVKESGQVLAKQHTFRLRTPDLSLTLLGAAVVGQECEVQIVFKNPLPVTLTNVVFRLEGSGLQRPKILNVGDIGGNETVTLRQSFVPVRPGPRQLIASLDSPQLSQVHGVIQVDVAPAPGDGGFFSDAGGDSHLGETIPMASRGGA
As to the kind of experiment: TG1 inhibition kinetics (kinh/Ki). The class given is biochemical.

Molecules are shown by their SMILES.

Consider `O=C(NC[C@@H]1CC(Br)=NO1)[C@@H]1Cc2ccccc2CN1C(=O)OCc1cnc2ccccc2c1` [compound 24], for which, in assay [1], the “kinh/Ki TG2” value is 130 M⁻¹ s⁻¹.
In assay [2], `CCC(C)SSc1nc2cc([N+](=O)[O-])ccc2s1` (centres unmarked) [compound 16] returned a DTT k of 33.3 M⁻¹ s⁻¹. Further, in assay [3], the “Trx kinh/Ki” value is 5830 M⁻¹ s⁻¹ and the Trx/DTT is listed as 175.
On to `C#CCO[C@@H]1C[C@@H](C(=O)NC[C@@H]2CC(Br)=NO2)N(C(=O)OCc2cnc3ccccc3c2)C1` [compound 23], for which the “kinh/Ki TG1” value in assay [4] worked out at 72.33 M⁻¹ s⁻¹. For the same molecule, in assay [1], the “kinh/Ki TG2” value amounted to 142 M⁻¹ s⁻¹.
In assay [2], `CCC(C)SSc1ccccn1` (centres unmarked) [compound 13] displayed a DTT k of 0.617 M⁻¹ s⁻¹. Moreover, in assay [3], the “Trx kinh/Ki” value was “inactive”.
Regarding `O=C(NC[C@@H]1CC(Br)=NO1)[C@@H]1C[C@H](F)CN1C(=O)OCc1cnc2ccccc2c1` [compound 19], in assay [4], the “kinh/Ki TG1” value came out at 100.7 M⁻¹ s⁻¹. Further, the “kinh/Ki TG2” value in assay [1] was 223.93 M⁻¹ s⁻¹.
For `CCC(C)SSc1nc2cc([N+](=O)[O-])ccc2[nH]1` (centres unmarked) [compound 9], the DTT k in assay [2] was found to be 40 M⁻¹ s⁻¹. Moreover, in assay [3], the “Trx kinh/Ki” value was 14500 M⁻¹ s⁻¹ and the Trx/DTT is recorded as 362.
Consider `c1ccc2[nH]c(SSC3CCCCC3)nc2c1` [compound 7], for which, in assay [2], the DTT k was 76.7 M⁻¹ s⁻¹. Moreover, in assay [3], the “Trx kinh/Ki” value is 6330 M⁻¹ s⁻¹ and the Trx/DTT stood at 83.
With `O=C(NC[C@@H]1CC(Br)=NO1)[C@@H]1C[C@@H](OCc2ccccc2)CN1C(=O)OCc1cnc2ccccc2c1` [compound 22], the “kinh/Ki TG2” value in assay [1] came to 128.5 M⁻¹ s⁻¹.
Molecule `CCC(C)SSc1nccs1` (centres unmarked) [compound 14] came in with a DTT k in assay [2] of 12.3 M⁻¹ s⁻¹. In assay [3], the “Trx kinh/Ki” value was 833 M⁻¹ s⁻¹ and the Trx/DTT was determined as 68.
The matching figures for `CCC(C)SSc1nc2ccccc2[nH]1` (centres unmarked) [compound 3]: 80 M⁻¹ s⁻¹, 3170 M⁻¹ s⁻¹ and 39.
`CCSSc1nc2ccccc2[nH]1` [compound 4] came in with a DTT k in assay [2] of 900 M⁻¹ s⁻¹.
For `O=C(NC[C@@H]1CC(Br)=NO1)[C@@H]1C[C@@H](F)CN1C(=O)OCc1cnc2ccccc2c1` [compound 18], in assay [4], the “kinh/Ki TG1” value is 111.6 M⁻¹ s⁻¹. Also, the “kinh/Ki TG2” value in assay [1] was found to be 120.8 M⁻¹ s⁻¹.
As for `O=C(NC[C@@H]1CC(Br)=NO1)[C@@H]1CCCCN1C(=O)OCc1cnc2ccccc2c1` [compound 26], the “kinh/Ki TG1” value in assay [4] came out at 384.87 M⁻¹ s⁻¹. For the same molecule, the “kinh/Ki TG2” value in assay [1] turned out to be 138.3 M⁻¹ s⁻¹.
The molecule `CC(C)SSc1nc2ccccc2[nH]1` [compound 8] had a DTT k in assay [2] of 76.7 M⁻¹ s⁻¹. For the same molecule, in assay [3], the “Trx kinh/Ki” value was 5500 M⁻¹ s⁻¹ and the Trx/DTT was determined as 72.
With `O=C(NC[C@@H]1CC(Br)=NO1)[C@@H]1Cc2c([nH]c3ccccc23)CN1C(=O)OCc1cnc2ccccc2c1` [compound 25], the “kinh/Ki TG2” value in assay [1] was found to be 346.67 M⁻¹ s⁻¹.
In turn, `c1ccc2[nH]c(SSC3CCCC3)nc2c1` [compound 5] gave a DTT k in assay [2] of 53.3 M⁻¹ s⁻¹. Further, in assay [3], the “Trx kinh/Ki” value was 4000 M⁻¹ s⁻¹ and the Trx/DTT is 74.
`CCC(C)SSc1nc2ccccc2o1` (centres unmarked) [compound 12]: the DTT k in assay [2] was determined as 102 M⁻¹ s⁻¹. Besides, in assay [3], the “Trx kinh/Ki” value is 40000 M⁻¹ s⁻¹ and the Trx/DTT is 392.
With `CCC(C)SSc1nc2cc(Cl)ccc2s1` (centres unmarked) [compound 15], in assay [2], the DTT k worked out at 2.83 M⁻¹ s⁻¹. In addition, in assay [3], the “Trx kinh/Ki” value was 250 M⁻¹ s⁻¹ and the Trx/DTT is given as 88.
In assay [2], `CC(C)(C)SSc1nc2ccccc2[nH]1` [compound 6] displayed a DTT k of about 0.467 M⁻¹ s⁻¹.
For `CCC(C)SSc1nc2ccncc2[nH]1` (centres unmarked) [compound 10], the DTT k in assay [2] came out at 36.7 M⁻¹ s⁻¹. Besides, in assay [3], the “Trx kinh/Ki” value was 3170 M⁻¹ s⁻¹ and the Trx/DTT is 85.
The matching figures for `CCC(C)SSc1nc2cccc(C)c2s1` (centres unmarked) [compound 17]: 10 M⁻¹ s⁻¹, 817 M⁻¹ s⁻¹ and 82.
Turning to `O=C(NC[C@@H]1CC(Br)=NO1)[C@@H]1C[C@@H](O)CN1C(=O)OCc1cnc2ccccc2c1` [compound 20], the “kinh/Ki TG1” value in assay [4] came to 73.12 M⁻¹ s⁻¹. In assay [1], the “kinh/Ki TG2” value was determined as 208.52 M⁻¹ s⁻¹.
